Drawing on patent US7767670B2, “Substituted 3-carboxamido isoxazoles as kinase modulators” (Ambit Biosciences Corporation, priority 2003, dated 2010), this text covers Kd for 1 compound.

The test addresses T1, MKNK2 (Homo sapiens, UniProt Q9HBH9).
T1 construct: made in house; host or cells: T7 bacteriophage display
In words: Binding constant (Kd) measurement, phage-displayed kinase competition binding assay. The note with it: immobilized ATP site ligand competition, read-out: activity towards the target (Kd). An excerpt: Binding Constant (Kd) Measurements for Small-Molecule-Kinase Interactions

T1 sequence (Q9HBH9 whole entry): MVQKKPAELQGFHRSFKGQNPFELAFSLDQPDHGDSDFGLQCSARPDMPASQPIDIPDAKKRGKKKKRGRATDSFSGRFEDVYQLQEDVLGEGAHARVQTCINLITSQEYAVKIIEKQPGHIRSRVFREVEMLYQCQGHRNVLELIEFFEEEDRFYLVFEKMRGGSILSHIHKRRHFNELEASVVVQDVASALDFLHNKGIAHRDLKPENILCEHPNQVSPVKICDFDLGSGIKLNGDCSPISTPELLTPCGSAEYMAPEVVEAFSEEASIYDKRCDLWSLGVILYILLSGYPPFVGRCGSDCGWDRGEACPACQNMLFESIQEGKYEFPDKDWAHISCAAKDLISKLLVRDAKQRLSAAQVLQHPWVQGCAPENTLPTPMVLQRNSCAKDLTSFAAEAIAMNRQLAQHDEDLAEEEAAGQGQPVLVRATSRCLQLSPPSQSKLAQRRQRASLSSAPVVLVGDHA

The term Kd denotes the free concentration of one partner at which half of the binding sites on the other are occupied at equilibrium, for simple one-to-one binding. In the case of `CC(C)(C)c1cc(NC(=O)Cc2ccc(NC(=O)c3ccc4cnccc4n3)cc2)no1` [Compound F2], the Kd is less than 50 nM.
